Measured values: patent US20050095270A1, “Drug delivery to the inner ear and methods of using same” (priority 2003, published 2005)
Where a SMILES comes first, the peptide text is derived from it. The star is where a group is joined. Cbz = O=C(OCc1ccccc1)*; CH2F = FC*

Experiments:
[1] = test system: hair cells of organ of Corti; assay: Mitochondrial function and hair cell survival in organ of Corti treated with cisplatin; type: cell-based; details: cisplatin treatment alone (FIGS. 3B, 3E)
Description: FIGS. 3A-3F are fluorescent micrographs showing mitochondrial function in hair cells. Cells with healthy and functioning mitochondria stain red and are depicted in 3D, 3E and 3F. The presence of hair cells are shown in green and depicted in 3A, 3B and 3C. FIGS. 3A and 3D represent untreated controls. FIGS. 3B and 3E show an organ of Corti treated with the chemotherapeutic agent cisplatin. […] FIGS. 3C and 3F show an organ of Corti pretreated with an adenovector with bcl2 expression followed by cisplatin treatment.

inner ear = assay: Hearing by auditory brainstem response after round window injection of vector; type: in vivo, mouse; details: for protection of hearing / prevention of inner ear trauma by caspase inhibitor: larger volumes of fluid (greater than about 10% of total inner ear volume), hydraulic/mechanical injury
cathepsin B = cathepsin B (Homo sapiens, UniProt P07858); details: in vitro and in tissue culture cells at concentrations used to demonstrate the involvement of caspases; cited from earlier work

| Compound | hair cells and mitochondrial function in organ of Corti [1] | protection of hearing / prevention of inner ear trauma by caspase inhibitor (inner ear) | protection of hearing / prevention of inner ear trauma by caspase inhibitor (inner ear; listed as pancaspase inhibitor) | hearing loss with pancaspase inhibitor added to the vector composition (inner ear; round window, injection volumes up to 3 μL, zVAD-FMK 1 mM, 2 μL with 1 μL vector) | cathepsin B activity inhibition (cathepsin B) |
| --- | --- | --- | --- | --- | --- |
| N.N.[Cl][Pt][Cl] [cisplatin] | loss of cells and loss of mitochondrial function |  |  |  |  |
| CC(C)[C@H](NC(=O)OCc1ccccc1)C(=O)N[C@@H](C)C(=O)N[C@@H](CC(=O)O)C(=O)CF [zVAD-FMK, N-benzyloxycarbonyl-Val-Ala-Asp-fluoromethylketone] (Cbz-Val-Ala-Asp-CH2F) |  | can prevent inner ear trauma | protected hearing | only minimal loss of hearing | inhibit efficiently cathepsin B activity |
